Data from PubChem BioAssay AID1645866 (Buhrlage Lab, Dana-Farber Cancer Institute and Novartis …, 2021).
The source made the active and inactive calls.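 The calls were made as follows: active = in confirmatory dose-response testing, peak deubiquitinase inhibition of 30% or more; inactive = the rest.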

Each compound was assayed against Ubiquitin carboxyl-terminal hydrolase 28 (Homo sapiens) (UniProt Q96RU2) (assay: Concentration-response biochemical assay confirming initial hits as inhibitors of ubiquitin-specific protease 28 (AID 1645866)). Settings: purified USP28, ubiquitin-rhodamine fluorescence, 30 min.
Sequence of Ubiquitin carboxyl-terminal hydrolase 28 (Homo sapiens) (Q96RU2 whole entry, looked up): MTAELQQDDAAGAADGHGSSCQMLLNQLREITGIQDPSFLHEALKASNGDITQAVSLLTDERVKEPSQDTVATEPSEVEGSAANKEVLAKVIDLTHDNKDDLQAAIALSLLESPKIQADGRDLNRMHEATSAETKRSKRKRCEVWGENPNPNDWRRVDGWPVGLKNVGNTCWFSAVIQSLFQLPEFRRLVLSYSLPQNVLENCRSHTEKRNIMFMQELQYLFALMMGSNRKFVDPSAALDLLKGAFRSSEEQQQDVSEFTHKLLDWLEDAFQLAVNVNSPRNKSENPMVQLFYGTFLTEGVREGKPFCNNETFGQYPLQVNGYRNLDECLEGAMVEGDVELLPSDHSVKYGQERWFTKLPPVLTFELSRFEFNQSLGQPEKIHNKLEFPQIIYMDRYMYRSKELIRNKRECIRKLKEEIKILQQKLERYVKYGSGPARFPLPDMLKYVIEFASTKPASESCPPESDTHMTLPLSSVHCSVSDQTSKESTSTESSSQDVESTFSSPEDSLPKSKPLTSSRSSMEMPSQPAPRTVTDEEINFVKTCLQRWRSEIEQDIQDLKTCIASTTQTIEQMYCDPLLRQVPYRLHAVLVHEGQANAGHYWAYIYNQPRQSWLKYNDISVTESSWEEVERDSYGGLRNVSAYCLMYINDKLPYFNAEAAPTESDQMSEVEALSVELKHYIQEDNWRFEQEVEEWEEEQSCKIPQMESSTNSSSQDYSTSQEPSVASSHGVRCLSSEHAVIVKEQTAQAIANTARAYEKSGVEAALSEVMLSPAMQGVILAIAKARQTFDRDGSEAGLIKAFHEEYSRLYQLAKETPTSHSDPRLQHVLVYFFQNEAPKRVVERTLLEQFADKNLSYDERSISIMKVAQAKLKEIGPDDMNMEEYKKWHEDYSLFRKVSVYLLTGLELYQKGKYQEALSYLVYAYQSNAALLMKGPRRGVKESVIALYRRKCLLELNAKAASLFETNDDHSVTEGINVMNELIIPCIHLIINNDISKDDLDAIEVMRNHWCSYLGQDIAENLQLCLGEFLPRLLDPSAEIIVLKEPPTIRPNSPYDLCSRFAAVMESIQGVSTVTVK

IC50 | SMILES
> 50 µM (inactive) | CCOc1ccccc1NC(=O)COC(=O)C(c1ccccc1)c1ccccc1
8.62 µM | O=c1[nH]c(C2CCN(S(=O)(=O)c3ccc(S(=O)(=O)NC4CCCCC4)cc3)CC2)nc2c1nnn2Cc1c(Cl)cccc1Cl
22.2 µM | CCOC(=O)c1sc2c(c1C)c(=O)n(Cc1ccccc1)c(=O)n2CC(N)=O
2.11 µM | CC(NC(=O)c1ccccc1)c1nc2ccccc2n1CC(=O)Nc1ccc2c(c1)OCO2 (centres undefined)
> 50 µM (inactive) | Cc1cc(-n2c(C)cc(-c3csc(N)n3)c2C)no1
6.94 µM | N#Cc1ccccc1COC(=O)c1ccc2ccccc2n1
3.14 µM | Cc1sc2ncn3c(=O)n(CC(=O)Nc4ccc(F)c(Cl)c4)nc3c2c1C
37.5 µM | CC(Sc1n[nH]c2nc3ccccc3n12)C(=O)Nc1ccc2c(c1)OCCO2 (centres undefined)
18.5 µM | CC1CCCN(CCCNC(=O)c2ccc(N3CCc4ccccc43)s2)C1 (centres undefined)
6.49 µM | Cc1ccc(Cn2nnc(C(=O)NCc3ccco3)c2-n2cccc2)cc1
1.04 µM | Cc1ccccc1NC(=O)Nc1ccccc1OCc1cc(=O)n2cccc(C)c2n1
4.85 µM | CCN1C(=O)COc2ccc(NC(=O)c3ccc(OCc4nonc4C)cc3)cc21
> 50 µM (inactive) | CC1(C)CC2CC(C)(CN2Cc2c(O)ccc3ccccc23)C1 (centres undefined)
> 50 µM (inactive) | COc1ccc(/C=C/c2ccnc3nc(-n4cccc4)nn23)cc1
> 50 µM (inactive) | CC(C(=O)NCc1ccc(F)cc1)n1cccc1C(=O)c1ccccc1 (centres undefined)
43.8 µM | COc1cccc(C(=O)NCC(=O)Nc2nc3ccccc3[nH]2)c1
> 50 µM (inactive) | Cc1ccc2c(Nc3ccc(CC(=O)O)cc3)c(C(=O)N3CCCC3)cnc2n1
11.1 µM | Cc1nnc(NC(=O)C2CCN(c3ccc(S(N)(=O)=O)cc3[N+](=O)[O-])CC2)o1
> 50 µM (inactive) | COC1=CC(=O)c2c(O)c(C)c(CC(C)=O)c(O)c2C1=O
20.3 µM | O=C(CSc1nnc(Cn2cnc3ccccc32)o1)Nc1ccc([N+](=O)[O-])cc1
22.3 µM | Cc1cc(Nc2ccc(C(=O)NCc3ccco3)cc2)n2nc(-c3cccnc3)nc2n1
40.5 µM | COc1cccc(-c2cc(C(=O)Nc3cc(C)n(Cc4ccc(Cl)cc4)n3)no2)c1
14 µM | Cc1nc(C(=O)NC2(O)C(=O)c3ccccc3C2=O)cs1
28.1 µM | COc1ccc(NC(=O)CC(=O)c2ccc([N+](=O)[O-])cc2)cc1S(=O)(=O)Nc1ccc(Br)cc1
> 50 µM (inactive) | COc1c2nc3ccccc3oc-2cc(=O)c1OC

IC50 | SMILES
4.97 µM | Cc1ccc(-c2nc(Cn3cnc4ccccc4c3=O)cs2)cc1
> 50 µM (inactive) | Cc1ccc2c(c1C)NC(=O)[C@]21[C@@H]2C(=O)N(c3cccc(Cl)c3)C(=O)[C@@H]2[C@@H]2CCCN21
19.9 µM | Cc1ccc2[nH]cc(S(=O)(=O)c3ccc(C)c(F)c3)c(=O)c2c1
29.1 µM | Fc1cccc(Cn2cc(-c3noc(-c4cccnc4)n3)nn2)c1
5.47 µM | COc1ccccc1-c1nc(-c2nnn(Cc3ccc(C)cc3)c2C)no1
2.13 µM | Cc1cc(C)n(-c2ccc(C(=O)Nc3cccc(S(=O)(=O)N4CCCC4)c3)cc2)n1
6.87 µM | Cc1ccc(-n2c(=O)[nH]c3c(C(N)=O)nc(-c4cccnc4)nc32)cc1
1.83 µM | COc1ccc(OC)c(-c2cc(C(=O)Nc3c(C)nn(Cc4ccccc4)c3C)no2)c1
6.53 µM | O=C(O)c1ccc(C2Cc3c([nH]c(=O)[nH]c3=O)O2)cc1 (centres undefined)
32.6 µM | Nc1nonc1C(=O)NCCNCc1cccc(OCc2ccc(Cl)cc2)c1
19.7 µM | CCc1cc2c(=O)[nH]c(Cc3ccc(OC)cc3)nc2s1
> 50 µM (inactive) | Cc1ccc(C)c(S(=O)(=O)N2CCN(c3ccc4nnc(-c5ccco5)n4n3)CC2)c1
8.2 µM | COc1ccc(-c2ocnc2C(=O)NCc2ccc(F)cc2)cc1
1.7 µM | O=C(Nc1ccc(Cl)cc1F)c1cc(-c2ccccn2)n[nH]1
26.2 µM | O=C(CN1C(=O)C2CCCC2=Nc2ccccc21)Nc1ccc(F)cc1F (centres undefined)
21 µM | Cc1cccc(NC(=O)CN2C(=O)COc3cc(S(=O)(=O)N4CCCC4)ccc32)c1C
2.25 µM | CC1=C(C)C(c2c(-c3ccc(C)cc3)[nH]c3ccccc23)N(C(C)(C)C)C1=O (centres undefined)
> 50 µM (inactive) | CCn1cnc2c1c(=O)n(CC(=O)NCc1ccccc1Cl)c(=O)n2Cc1ccccc1
36.2 µM | CCc1nc(-c2cccc(NC(=O)c3ccc(C#N)cc3F)c2)no1
29.6 µM | O=C(CN1C(=O)c2ccccc2Sc2ccc(C(=O)N3CCCC3)cc21)Nc1ccccc1Cl
8.65 µM | COc1ccc(OC)c(NC(=O)CSc2nc(C)nc3c2oc2ccccc23)c1
21.7 µM | O=C(Nc1ccc(F)cc1F)NC1CCN(c2ccccc2)C1=O (centres undefined)
2.3 µM | Clc1cc2nc(N3CCN(c4ccccn4)CC3)c3nncn3c2cc1Cl
17.9 µM | Cn1c(-c2nnc(SCC(=O)Nc3ccccc3F)o2)cc2ccccc21
0.594 µM | O=C(Nc1ccc2c(c1)OCCO2)C1CCC(Cn2cnc3ccccc3c2=O)CC1 (centres undefined)

IC50 | SMILES
> 50 µM (inactive) | CCN1CCN(C(=O)CCCN(c2ccccc2)S(C)(=O)=O)CC1
> 50 µM (inactive) | O=C(c1ccc2cc[nH]c2c1)N1CCC(Nc2cccnc2)C1 (centres undefined)
4.59 µM | CN(C)CCc1cc2c(c3c1ccc1ccccc13)OCO2
7.65 µM | CCn1cc(-c2nc(-c3ccccc3)no2)c(=O)c2cc(F)ccc21
5.44 µM | O=C(COc1ccc(Cl)cc1Cl)Nc1ccc2[nH]c(=O)[nH]c2c1
2.03 µM | COc1ccccc1-c1ccc(SCC(=O)Nc2ccc3c(c2)OCCO3)nn1
> 50 µM (inactive) | CCOc1ccc(-c2cc3nc(C4CCN(C(=O)OC(C)(C)C)CC4)c(C(=O)Nc4cc(F)ccc4F)cn3n2)cc1
> 50 µM (inactive) | Cc1cnc2nc3c(cc2c1)CN(S(=O)(=O)c1cc(F)ccc1C)CC3
> 50 µM (inactive) | O=C(NCc1ccc2c(c1)OCO2)c1ccc(C2SCC(=O)N2Cc2ccco2)cc1 (centres undefined)
23.6 µM | O=C(COC(=O)c1ccc2[nH]c3c(c2c1)CCCC3)Nc1ccc2c(c1)OCO2
32.5 µM | Cc1ccc(-c2cnc(C3CC3)o2)cc1S(=O)(=O)Nc1ccc(F)c(Cl)c1
47.4 µM | O=C(NCc1cccnc1)c1cnn2c(C(F)(F)F)cc(-c3ccc(F)cc3)nc12
24.4 µM | O=C(CNS(=O)(=O)c1ccc(F)cc1)N1CCCC(c2nnc3ccccn23)C1 (centres undefined)
12.6 µM | Cc1ccccc1-c1nnc(-c2ccc(C(=O)NCc3ccccc3F)cc2)o1
4.21 µM | Cc1ccc2c(c1)c(=O)c(C(=O)c1ccccc1)cn2CC(=O)Nc1ccc2c(c1)OCCO2
32.7 µM | COCCNC(=O)Cn1c(=O)n(Cc2ccccc2)c(=O)c2c3c(sc21)CCC3
3.33 µM | Cc1cc(C)c(NC(=O)CSc2nc3nccnc3c(=O)n2Cc2ccccc2Cl)c(C)c1
9.47 µM | Cc1cc(C(=O)Nc2ccc3c(c2)OCCO3)no1
21.7 µM | CCOC(=O)c1c(C)nc2n(Cc3ccccc3)c3ccccc3n12
> 5 µM (inactive) | COc1ccc(CC(=O)Nc2nc(-c3ccco3)c(-c3ccco3)s2)cc1
11.1 µM | COC(=O)COc1ccc(/C=N/NC(=O)c2ccc(CN3CCc4ccccc4C3)cc2)cc1
7.22 µM | O=C(COC(=O)CCc1ccc(S(=O)(=O)N2CCOCC2)cc1)Nc1ccc2c(c1)OCCO2
7.24 µM | CCOc1cc(N2CCOCC2)c(OCC)cc1NC(=O)c1cc(-c2ccncc2)nc2ccccc12

SMILES | IC50
Fc1ccc(CN2CCc3nc4cccnc4cc3C2)cc1 | > 50 µM (inactive)
